The values that follow come from patent US7538099B1, “Antiprogestin method and kit for reducing side effects associated with low dosage HRT, oral contraception and regulating menses” (Eastern Virginia Medical School, priority 1992, dated 2009).

Where two headings read alike, the source gives them in different places. Some results are limits rather than exact numbers.

Data set [1] relates to ovariectomized cynomolgus monkeys. The data set is described as follows: Example II: vaginal bleeding in ovariectomized monkeys on estradiol and estradiol plus progesterone replacement, intermittent onapristone. The data set is classed as in vivo, Macaca fascicularis. As to the method: (§1) Twenty previously ovariectomized cynomolgus monkeys (Macaca fascicularis) have implanted for 281 days a single estradiol-containing subcutaneous capsule. Estradiol release from this capsule results in serum estradiol concentrations of approximately 75 pg/ml. A subcutaneous progesterone capsule is implanted on day 191 and remains in place until day 281. Progesterone release from this capsule results in serum progesterone concentrations of approximately 4 ng/ml. The study takes place in the animal research facilities of the Eastern Virginia Medical School as described in Example I.
The purpose of this study was to evaluate break-through bleeding prior to and after onapristone treatment in ovariectomized monkeys receiving estrogen and estrogen plus progesterone replacement therapy. The twenty monkeys were assigned to the following four groups: Group I receives onapristone vehicle (saline) on days 30, 60, 90, 120, 150, 180, 210, 240, 270. Group 2 receives 3 mg/kg i.m. onapristone on days 30, 60, 90, 120, 150, 180, 210, 240, 270. Group 3 is treated with 10 mg/kg i.m. onapristone on the same days. Group 4 receives 30 mg/kg i.m. onapristone on the same days. Vaginal swabs are performed daily from day 1 to 281. The primary parameter for evaluation in this study is the occurrence of vaginal bleeding.

Data set [2] shares this test system. Briefly: Example III: vaginal bleeding in ovariectomized monkeys on estradiol and low-dose progesterone implants, onapristone 40 mg/kg im. The data set is classed as in vivo. Particulars: for incidence of breakthrough bleeding: 40 mg/kg im, estradiol and low-dose progesterone replacement. As to the method: (§2) Twenty ovariectomized cynomolgus monkeys were implanted subcutaneously with an estradiol-containing silastic capsule (3 cm length).
The study was undertaken in two phases.
(§3) All monkeys have reached at least day 272. The estradiol implant will remain in place to day 301. […] A smaller progesterone implant (0.5 cm) will be in place from day 210 to 294. This implant is intended to produce a serum progesterone concentration of approximately 0.7 ng/ml. The two experimental groups (M=10/group) were as follows: • Group 1 Onapristone vehicle (saline) on days 180, 197, 240, and 270 • Group 2 Onapristone […] (40 mg/kg, im) on days 180, 197, 240, and 270

Data set [3] in a line: Example II: serum hormone concentrations from subcutaneous capsules. The class given is in vivo, Macaca fascicularis. Here is the method: as §1
On the set-up of data set [4]: species or system cynomolgus monkeys. The following applies: female, cynomolgus monkey, in vivo, sc. As to the method: as §2, §3
The subject of data set [5] is ovulation (serum estradiol and progesterone). The data set is described as follows: Example I Part II: weekly serum progesterone and estradiol (breakthrough ovulation, endogenous estrogen biosynthesis). The class given is in vivo, Macaca mulatta. The following applies: continuous ultra low dose regimen plus intermittent RU 486; almost unvarying. The text has this: In Part II, 30 of these primates were randomly assigned to five treatment groups of six each: (1) the oral contraceptive medication employed in Part I was continued (21+7 day regimen) for 6 months; (2) continuous (no “pill-free” interval) daily estrogen-progestin medication, with combined single day oral administration of an antiprogestin (RU 486) on treatment days 30, 60, 90, 120, 150, and 180; (3) same as group 2, except that the progesterone antagonist was given only on days 60, 120, and 180; (4) same as group 2, except that RU 486 was given only on days 90 and 180; and (5) 180 days of continuous estrogen-progestin daily therapy, but without any antiprogestin treatment. Daily monitoring to detect vaginal blood, as in Part I above, was discontinued at 187 days. Femoral blood was collected once weekly throughout in order to identify potential breakthrough ovulation via progesterone elevations; serum values above 1.0 ng/ml were considered indicative of ovarian luteal function and possible ovulation. Likewise, these same specimens were analyzed for estradiol levels in order to monitor ongoing endogenous estrogen biosynthesis. Two monkeys, in groups 1 and 3, respectively, were dropped from the ongoing protocol, one due to a skin rash and the other because of a thumb infection requiring topical treatment. Neither incident is believed to be related to the hormonal treatments.

In data set [6] the test system is adult female rhesus monkeys. The data set is described as follows: Example I Part II: daily vaginal swabs for bleeding, ultra low dose oral contraception with or without intermittent RU 486, 180 days. The data set is classed as in vivo, Macaca mulatta. The text has this:
In Part II, 30 of these primates were randomly assigned to five treatment groups of six each: (1) the oral contraceptive medication employed in Part I was continued (21+7 day regimen) for 6 months; (2) continuous (no “pill-free” interval) daily estrogen-progestin medication, with combined single day oral administration of an antiprogestin (RU 486) on treatment days 30, 60, 90, 120, 150, and 180; (3) same as group 2, except that the progesterone antagonist was given only on days 60, 120, and 180; (4) same as group 2, except that RU 486 was given only on days 90 and 180; and (5) 180 days of continuous estrogen-progestin daily therapy, but without any antiprogestin treatment. Daily monitoring to detect vaginal blood, as in Part I above, was discontinued at 187 days. Femoral blood was collected once weekly throughout in order to identify potential breakthrough ovulation via progesterone elevations; serum values above 1.0 ng/ml were considered indicative of ovarian luteal function and possible ovulation. Likewise, these same specimens were analyzed for estradiol levels in order to monitor ongoing endogenous estrogen biosynthesis. […]
Data derived from Part II of the study was listed by treatment group with the profiles of endometrial bleeding through six treatment cycles to 180 days. Mean (+SEM) number of days for breakthrough bleeding or menses was calculated by dividing the total number of incidents recorded (per treatment cycle in the case of group 1 or 30 days intervals for groups 2 to 5) by the number of individuals observed in the group. In the tabulation of data, menses (withdrawal or induced bleeding at expected intervals) was scored for vaginal blood detected within the “pill free” interval for group 1 or within seven days after the intermittent administration of RU 486 during continuous ultra low dose oral contraception (groups 2 to 4). Similarly, failure to observe vaginal bleeding during these times of expected menses, either withdrawal of the oral contraceptive medication or soon after giving the progesterone antagonist, was scored as withdrawal amenorrhea.

For the compound `CN(C)c1ccc([C@H]2C[C@]3(C)[C@@H](CC[C@]3(O)CCCO)[C@@H]3CCC4=CC(=O)CCC4=C32)cc1` [Onapristone], the “incidence of breakthrough bleeding” value is given as “lowers the incidence of breakthrough bleeding” in data set [1] (Groups 2-4: 3, 10, 30 mg/kg i.m. every 30 days, estradiol capsule); “reduced the incidence of BTBs” in data set [2]; “reduced the incidence of breakthrough bleeding” in data set [2] (listed as onapristone). Further, the “induction of bleeding by onapristone during estradiol treatment” value in data set [1] (Groups 2-4: 3, 10, 30 mg/kg i.m. every 30 days, estradiol capsule only) is recorded as “does not induce bleeding”. Also, the “induction of vaginal bleeding during combined estradiol and progestin treatment” value in data set [1] (after progesterone capsule implanted (day 191)) was “induces vaginal bleeding”. In data set [2] (Group 2, 40 mg/kg), the “days of bleeding that followed the day 197 onapristone treatment” value is given as “Twelve of the twenty days”. Moreover, the “monkeys in which bleeding followed the day 197 treatment” value in data set [2] (Group 2, 40 mg/kg) is “four of the ten monkeys”. Also, in data set [2] (Group 2, 40 mg/kg), the “monkeys in which bleeding occurred” value is “seven of the ten monkeys”. For the same compound, in data set [2] (Group 2, 40 mg/kg im, controls 33 days), the “days of unscheduled vaginal bleeding (breakthrough bleeding)” value stood at 2 days. Also, the “days of bleeding that followed the day 240 onapristone treatment” value in data set [2] (Group 2, 40 mg/kg, in one monkey) is listed as “Six of the twenty days”. Moreover, in data set [2] (Group 2, 40 mg/kg, out of 800 days of observation), the “days of vaginal bleeding” value is 20 days. Further, in data set [2] (monkeys substituted with E2 and low-dose progesterone), the withdrawal-bleeding result is “induced withdrawal-bleeding”.
As to `CC(=O)[C@H]1CC[C@H]2[C@@H]3CCC4=CC(=O)CC[C@]4(C)[C@H]3CC[C@]12C` [progesterone], the serum progesterone concentrations result in data set [3] (subcutaneous progesterone capsule, day 191 to 281) was “approximately 4 ng/ml”. Besides, the “BTBs after addition of low-dose progesterone” value in data set [2] (on estradiol implant) was “increase in BTBs”.
Regarding `C[C@]12CC[C@@H]3c4ccc(O)cc4CC[C@H]3[C@@H]1CC[C@@H]2O` [estradiol], the “rate of breakthrough bleeding with progressing duration of estradiol treatment” value in data set [1] (Group 1, estradiol capsule, onapristone vehicle) was “increasing rate of breakthrough bleeding”. Also, the serum estradiol concentrations result in data set [3] (single estradiol-containing subcutaneous capsule) and in data set [4] was “approximately 75 pg/ml” throughout. Also, the “breakthrough bleedings (BTBs) with E2 alone” value in data set [2] (ovariectomized monkeys substituted with E2 alone) is reported as “do not exhibit breakthrough bleedings”.
`CC#C[C@]1(O)CC[C@H]2[C@@H]3CCC4=CC(=O)CCC4=C3[C@@H](c3ccc(N(C)C)cc3)C[C@@]21C` [RU 486]: the serum estradiol levels in data set [5] is approximately 25 pg/mL. For the same compound, the “duration of menses after RU 486” value in data set [6] (RU 486 50 mg intermittently during continuous ultra low dose oral contraception, P<0.05 versus interrupted pill cycle alone) was determined as 3.1 ± 0.8 days. Besides, the “time to induced bleeding after RU 486, all instances” value in data set [6] (administered at 30, 60 or 90 day intervals) was not above 72 h. Besides, the “reduction of overall breakthrough bleeding incidence” value in data set [6] (single 50 mg oral RU 486 doses at 30, 60 or 90 day intervals during continuous ultra low dose oral contraception, groups 2 to 4 combined versus group 1, P<0.05) stood at 57%.
